Laboratory results as given in patent US20250214977A1, “STAT6 INHIBITORS AND USES THEREOF” (Kymera Therapeutics, Inc., priority 2024, published 2025).

What follows are molecules tested on Phosphorylation of STAT6 in human PBMC (CD19+ B cells) (assay: Phosphorylated STAT6 (pSTAT6) flow cytometry assay in human PBMC, IL-4 stimulated). Conditions: compound 1 hour, 1 ng/ml IL-4 for 15 minutes, read-out: STAT6 IL4 pSTAT6 assay in PBMC: Average IC50.
Format: cell-based
Procedure: Example 2. Phosphorylated STAT6 (pSTAT6) Flow Cytometry Assay in Human PBMC
Phosphorylation of STAT6 in human PBMC was quantitatively measured using flow cytometry technology. Human PBMC were seeded in 96-well plates with a density of 0.3 to 0.5 million cells per well in 100 μl fresh media. Compounds were then added to the assay plates with a final top concentration of up to 30 μM in a 1:3 dilution series with total of 9 doses. The assay plates were incubated for 1 hour at 37° C. under 5% CO2. The cells were then stimulated with 1 ng/ml of IL-4 (R&D Systems, Cat #6507-IL) for 15 minutes, followed by fixation for 30 minutes at 4° C. Cells were spun down at 350 g for 5 minutes. The supernatant was removed and cells were washed once with FACS buffer. Cells were permeabilized with 90% MeOH/H2O for 30 minutes at 4° C., followed by one wash with FACS buffer. Non-specific binding were blocked with human Fc for 1 hour at 4 C, followed by one wash with FACS buffer. AF488 conjugated pSTAT6 antibody (BD Biosciences, Cat #612600, 1:100 dilution) and PE conjugated CD19 antibody (BD Biosciences, Cat #341103, 1:50 dilution) diluted in 100 μl FACS buffer was added to each well with overnight incubation at 4° C. Cells were then washed once with FACS buffer and resuspended in 200 μl of FACS buffer for flow cytometry to quantify pSTAT6 in CD19+ B cells. The data was analyzed by GraphPad Prism and the dose dependent pSTAT6 inhibition was fit using the four-parameter inhibitor vs. response nonlinear regression.

SMILES | IC50
COC(=O)c1ccc(OCC(=O)N2CCC=C(c3ccc4cc(C(=O)N(C)C)[nH]c4c3)C2)cc1 [Example I-142] | > 100 µM
CN(C)C(=O)c1cc2cc(C3=CCCN(C(=O)Cc4coc5ccccc45)C3)ccc2o1 [Example I-271] | > 100 µM
CN(C)C(=O)c1cc2cc(C3=CCCN(C(=O)CCc4nncc5ccccc45)C3)ccc2o1 [Example I-168] | > 100 µM
CN(C)C(=O)c1cc2cc(C3=CCCN(C(=O)CCc4ncccn4)C3)ccc2o1 [Example I-231] | > 100 µM
CN(C)C(=O)c1cc2ccc(C3=CCCN(C(=O)c4cn(C5CC5)nn4)C3)cc2[nH]1 [Example I-45] | 10 to 100 µM
CN(C)C(=O)c1cn2ccc(C3=CCCN(C(=O)CCn4ccnn4)C3)cc2n1 [Example I-289] | > 100 µM
CO[C@@H](C(=O)N1CCC=C(c2ccc3cc(C(=O)N(C)C)[nH]c3c2)C1)c1ccccc1 [Example I-50] | 10 to 100 µM
CNc1ccc(-c2cc(C3=CCCN(C(=O)CCn4ccnn4)C3)cc3cc(C(=O)N(C)C)oc23)cc1 [Example I-204] | > 100 µM
CN(C)C(=O)c1cc2cc(C3=CCCN(C(=O)CCc4ccnnc4)C3)ccc2o1 [Example I-225] | > 100 µM
CC(=O)OCC(C(=O)N1CCC=C(c2ccc3cc(C(=O)N(C)C)[nH]c3c2)C1)c1ccccc1 (centres unmarked) [Example I-73] | 10 to 100 µM
C[C@@H]1CCCCN1C(=O)c1cc2ccc(C3=CCCN(C(=O)CCn4ccnn4)C3)cc2[nH]1 (single isomer, unassigned) [Example I-130] | > 100 µM
CN(C)C(=O)c1cc2ccc(C3=CCCN(C(=O)C4CC(=O)N4)C3)cc2[nH]1 (centres unmarked) [Example I-30] | 10 to 100 µM
CC(=O)NCc1ccccc1-c1ccccc1CC(=O)N1CCC=C(c2ccc3oc(C(=O)N(C)C)cc3c2)C1 [Example I-219] | > 100 µM
CN(C)C(=O)c1cc2cc(C3=CCCN(C(=O)CCc4nc5ccccc5[nH]4)C3)ccc2o1 [Example I-267] | > 100 µM
CN(C)C(=O)c1cc2ccc(C3=CCCN(C(=O)c4c(F)cccc4C(=O)O)C3)cc2[nH]1 [Example I-61] | > 100 µM
CN(C)C(=O)c1cc2cc(C3=CCCN(C(=O)CN4CCc5ccccc5C4)C3)ccc2o1 [Example I-296] | > 100 µM
CN(C)C(=O)c1cc2cc(C3=CCCN(C(=O)CCn4ccnc4)C3)ccc2o1 [Example I-310] | > 100 µM
CN(C)C(=O)c1cc2ccc(C3=CCCN(C(=O)[C@@H]4C[C@H]4c4ccn(C)n4)C3)cc2[nH]1 [Example I-11] | 10 to 100 µM
CN(C)C(=O)c1cc2ccc(C3=CCCN(C(=O)C(O)Cc4ccccc4)C3)cc2[nH]1 (centres unmarked) [Example I-52] | 10 to 100 µM
CC(=O)NC(Cn1ccnn1)C(=O)N1CCC=C(c2ccc3oc(C(=O)N(C)C)cc3c2)C1 (centres unmarked) [Example I-179] | > 100 µM
CN(C)C(=O)c1cc2cc(C3=CCCN(C(=O)Cc4ccncc4)C3)ccc2o1 [Example I-279] | > 100 µM
CN(C)C(=O)c1cc2cc(C3=CCCN(C(=O)Cc4ccc5nccnc5c4)C3)ccc2o1 [Example I-297] | > 100 µM
CC(=O)N1CCC(c2cccc3c2CC(C(=O)N2CCC=C(c4ccc5oc(C(=O)N(C)C)cc5c4)C2)N(C=O)C3)CC1 (centres unmarked) [Example I-180] | > 100 µM
CN(C)C(=O)c1cc2cc(C3=CCCN(C(=O)CCc4ccc5c(c4)OCCO5)C3)ccc2o1 [Example I-280] | > 100 µM
CN(C)C(=O)c1cc2cc([C@@H]3CC[C@H](CO)N(C(=O)CCn4ccnn4)C3)ccc2o1 (single isomer, unassigned) [Example I-156] | > 100 µM
CNc1ccc(-c2cc(C3=CCCN(C(=O)CCn4ccnn4)C3)cc3[nH]c(C(=O)N(C)C)cc23)c(C)c1 [Example I-114] | 0.1 to 1 µM
CN(C)C(=O)c1cc2cc(C3=CCCN(C(=O)[C@H]4Cc5ccc(O)cc5CN4)C3)ccc2o1 [Example I-239] | > 100 µM
C[C@@H](O)C(=O)N1CCC=C(c2ccc3cc(C(=O)N(C)C)[nH]c3c2)C1 [Example I-24] | 10 to 100 µM
CN(C)C(=O)c1nc2ccc(C3=CCCN(C(=O)CCn4ccnn4)C3)cc2o1 [Example I-226] | > 100 µM
